In PubChem BioAssay AID248 (DTP/NCI, 2004):
Toxic doses and inconclusive results are not listed. No stated cut-off is given here; in the data, active means T/C of 150% or more; inactive means T/C below 125%.

Test system: L1210 leukemia ip in BDF1 mice, survival T/C
Test: NCI In Vivo Anticancer Drug Screen. Data for tumor model L1210 Leukemia (intraperitoneal) in B6D2F1 (BDF1) mice
Details: endpoint: mean survival time, higher = longer survival
How it was run: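 Each compound was tested against a transplantable tumor grown in mice. The endpoint was survival, with treated animals benchmarked against vehicle controls as a simple ratio.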

[1] = dose: 50.0 mg/kg/injection, schedule: Q01DX009 (ip), vehicle: saline
[2] = dose: 100.0 mg/kg/injection, schedule: Q04DX003 (ip), vehicle: saline
[3] = dose: 100.0 mg/kg/injection, schedule: Q01DX001 (ip), vehicle: saline
[4] = dose: 200.0 mg/kg/injection, schedule: Q01DX001 (ip), vehicle: saline
[5] = dose: 400.0 mg/kg/injection, schedule: Q01DX001 (ip), vehicle: saline
[6] = dose: 200.0 mg/kg/injection, schedule: Q04DX003 (ip), vehicle: saline
[7] = dose: 400.0 mg/kg/injection, schedule: Q04DX003 (ip), vehicle: saline
[8] = dose: 50.0 mg/kg/injection, schedule: Q01DX001 (ip), vehicle: saline
[9] = dose: 100.0 mg/kg/injection, schedule: Q04DX003 (ip), vehicle: saline with Tween-80
[10] = dose: 200.0 mg/kg/injection, schedule: Q04DX003 (ip), vehicle: saline with Tween-80
[11] = dose: 400.0 mg/kg/injection, schedule: Q04DX003 (ip), vehicle: saline with Tween-80
[12] = dose: 100.0 mg/kg/injection, schedule: Q01DX009 (ip), vehicle: saline
[13] = dose: 200.0 mg/kg/injection, schedule: Q01DX009 (ip), vehicle: saline
[14] = dose: 75.0 mg/kg/injection, schedule: Q01DX001 (ip), vehicle: saline
[15] = dose: 150.0 mg/kg/injection, schedule: Q01DX001 (ip), vehicle: saline

Measured: T/C

Cc1nc(Cl)c2cnccn12
inactive: dose: 12.5 mg/kg/injection, schedule: Q01DX009 (ip), vehicle: saline 101 % of control | dose: 25.0 mg/kg/injection, schedule: Q01DX009 (ip), vehicle: saline 105 % of control | [1] 103 % of control | [2] 88 % of control

CCCCC(=O)N/N=C/c1cccc(Br)c1
inactive: [3] 102 % of control | [4] 102 % of control | [5] 98 % of control

NC(=O)Nc1ncn[nH]1
inactive: dose: 100.0 mg/kg/injection, schedule: Q04DX002 (ip), vehicle: saline with Tween-80 95 % of control | dose: 200.0 mg/kg/injection, schedule: Q04DX002 (ip), vehicle: saline with Tween-80 95 % of control | dose: 400.0 mg/kg/injection, schedule: Q04DX002 (ip), vehicle: saline with Tween-80 95 % of control

CCN(CC)Cc1ccccc1COC(=O)c1ccc([N+](=O)[O-])cc1
inactive: dose: 100.0 mg/kg/injection, schedule: Q04DX002 (ip), vehicle: Klucel (hydroxypropylcellulose) (HPC) 97 % of control | dose: 200.0 mg/kg/injection, schedule: Q04DX002 (ip), vehicle: Klucel (hydroxypropylcellulose) (HPC) 94 % of control | dose: 400.0 mg/kg/injection, schedule: Q04DX002 (ip), vehicle: Klucel (hydroxypropylcellulose) (HPC) 101 % of control

CCCC(O)C[N+](=O)[O-] (configuration not stated)
inactive: [2] 103 % of control | [6] 97 % of control | [7] 101 % of control

Cc1nccc(Cl)n1
inactive: [2] 104 % of control | [6] 90 % of control | [7] 93 % of control

C[N+](C)(C)Cc1ccccc1C[N+](C)(C)C
inactive: [8] 113 % of control | [3] 101 % of control | [4] 97 % of control

NC(=O)n1cnc(N)n1
inactive: [8] 98 % of control | [3] 98 % of control | [4] 104 % of control | [5] 107 % of control

CCNC(=O)NCC
inactive: [8] 109 % of control | [3] 101 % of control | [4] 103 % of control | [5] 97 % of control

CCOC(=O)c1c[nH]c2c(Cl)ccc(-c3ccccc3)c2c1=O
inactive: dose: 100.0 mg/kg/injection, schedule: Q01DX001 (ip), vehicle: saline with Tween-80 98 % of control | dose: 200.0 mg/kg/injection, schedule: Q01DX001 (ip), vehicle: saline with Tween-80 96 % of control | dose: 400.0 mg/kg/injection, schedule: Q01DX001 (ip), vehicle: saline with Tween-80 93 % of control

Clc1ccc2nc(C(Cl)(Cl)Cl)[nH]c2c1
inactive: [9] 98 % of control | [10] 104 % of control | [11] 95 % of control

COc1cc2ccc3c(c2cc1OC)CN1CCc2cc4c(cc2C1C3)OCO4 (configuration not stated)
inactive: dose: 100.0 mg/kg/injection, schedule: Q01DX009 (ip), vehicle: saline sonified 93 % of control | dose: 100.0 mg/kg/injection, schedule: Q04DX003 (ip), vehicle: saline sonified 109 % of control | dose: 200.0 mg/kg/injection, schedule: Q01DX009 (ip), vehicle: saline sonified 109 % of control | dose: 200.0 mg/kg/injection, schedule: Q04DX003 (ip), vehicle: saline sonified 98 % of control | dose: 400.0 mg/kg/injection, schedule: Q01DX009 (ip), vehicle: saline sonified 94 % of control | dose: 400.0 mg/kg/injection, schedule: Q04DX003 (ip), vehicle: saline sonified 101 % of control

Cc1nc2cnn(C)c2nc1C
inactive: [1] 101 % of control | [12] 97 % of control | [2] 106 % of control | [13] 88 % of control | [6] 100 % of control

O=[N+]([O-])c1ccccc1N=Nc1c(O)[nH]c2c(Cl)ccc(Cl)c12
inactive: [14] 89 % of control | [15] 93 % of control

C=CC1(C)CCC2C(=CCC3C(C)(COC4OC(CO)C(O)C(O)C4O)C(O)CCC23C)C1 (configuration not stated)
inactive: [14] 102 % of control | [15] 98 % of control

CC1=CC(=O)C2(C)C(C)=C(C)C12C (configuration not stated)
inactive: dose: 50.0 mg/kg/injection, schedule: Q04DX003 (ip), vehicle: saline with Tween-80 99 % of control | [14] 105 % of control | [9] 94 % of control | [15] 111 % of control | dose: 300.0 mg/kg/injection, schedule: Q01DX001 (ip), vehicle: saline 97 % of control

CC(=O)OC1CCC2(C)C(=CC=C3C2CCC2(C)C3CCC2C(C)CCCC(C)C)C1 (configuration not stated)
inactive: dose: 100.0 mg/kg/injection, schedule: Q01DX001 (ip), vehicle: Klucel (hydroxypropylcellulose) (HPC) 97 % of control | dose: 200.0 mg/kg/injection, schedule: Q01DX001 (ip), vehicle: Klucel (hydroxypropylcellulose) (HPC) 87 % of control | dose: 400.0 mg/kg/injection, schedule: Q01DX001 (ip), vehicle: Klucel (hydroxypropylcellulose) (HPC) 87 % of control

O=C(O)c1cccc(C(=O)c2ccc([N+](=O)[O-])cc2)c1
inactive: [3] 97 % of control | [2] 90 % of control | [4] 99 % of control | [6] 102 % of control | [5] 96 % of control | [7] 90 % of control

CCCC/C=C/C#N
inactive: dose: 75.0 mg/kg/injection, schedule: Q01DX009 (ip), vehicle: saline 100 % of control | [3] 106 % of control | [2] 98 % of control | dose: 150.0 mg/kg/injection, schedule: Q01DX009 (ip), vehicle: saline 97 % of control | [4] 96 % of control | [6] 101 % of control | [5] 92 % of control | [7] 94 % of control

CC(C)=CCC/C(C)=C/CNc1ncnc2nc[nH]c12
inactive: dose: 50.0 mg/kg/injection, schedule: Q01DX009 (ip), vehicle: saline with Tween-80 103 % of control | dose: 100.0 mg/kg/injection, schedule: Q01DX009 (ip), vehicle: saline with Tween-80 100 % of control | dose: 100.0 mg/kg/injection, schedule: Q04DX003 (ip), vehicle: acetone 94 % of control | [9] 94 % of control | dose: 200.0 mg/kg/injection, schedule: Q01DX009 (ip), vehicle: saline with Tween-80 100 % of control | dose: 200.0 mg/kg/injection, schedule: Q04DX003 (ip), vehicle: acetone 101 % of control | [10] 95 % of control | dose: 400.0 mg/kg/injection, schedule: Q01DX009 (ip), vehicle: saline with Tween-80 105 % of control | [11] 90 % of control

Oc1c(Cl)cc(Cl)cc1/C=C1\C=Nc2ccccc21
inactive: dose: 100.0 mg/kg/injection, schedule: Q04DX002 (ip), vehicle: saline 97 % of control | dose: 200.0 mg/kg/injection, schedule: Q04DX002 (ip), vehicle: saline 94 % of control | dose: 400.0 mg/kg/injection, schedule: Q04DX002 (ip), vehicle: saline 102 % of control

CCOC(=O)C1OC1(C)c1ccccc1 (configuration not stated)
inactive: [12] 102 % of control | [2] 100 % of control | [13] 100 % of control | [6] 94 % of control | dose: 400.0 mg/kg/injection, schedule: Q01DX009 (ip), vehicle: saline 102 % of control | [7] 107 % of control

CN(c1ccccc1)c1ccc([N+](=O)[O-])cc1[N+](=O)[O-]
inactive: dose: 100.0 mg/kg/injection, schedule: Q01DX001 (ip), vehicle: carboxymethylcellulose (CMC) 98 % of control | dose: 200.0 mg/kg/injection, schedule: Q01DX001 (ip), vehicle: carboxymethylcellulose (CMC) 102 % of control | dose: 400.0 mg/kg/injection, schedule: Q01DX001 (ip), vehicle: carboxymethylcellulose (CMC) 107 % of control

Cc1nc2ccccc2o1
inactive: dose: 100.0 mg/kg/injection, schedule: Q04DX002 (ip), vehicle: other 104 % of control | dose: 200.0 mg/kg/injection, schedule: Q04DX002 (ip), vehicle: other 96 % of control | dose: 400.0 mg/kg/injection, schedule: Q04DX002 (ip), vehicle: other 118 % of control
